Experimental data from US12649712B2, “Indene compounds, pharmaceutical compositions thereof, and their therapeutic applications” (NucMito Pharmaceuticals Co. Ltd., priority 2020, dated 2026).

Tested on: alpha-smooth muscle actin (α-SMA)
Assay: Inhibition of TGF-β induced expression of alpha-smooth muscle actin (α-SMA) in CFSC cells, western blot
Type: cell-based
Settings: compound at 10 μM, TGF-β (10 ng/mL), 24 hours, decrease in band intensity vs TGF-β only
Experimental: The ability of a compound to inhibit the TGF-β induced expression of alpha-smooth muscle actin (α-SMA) was evaluated in CCL4-treated fat storing (CFSC) cells. α-SMA is considered as a reliable marker of hepatic stellate cell activation and a key biomarker for liver fibrosis. See, e.g., Meng et al., Nat. Rev. Nephrol. 2016, 12, 325-38; Fabregat et al., FEBS J. 2016, 283, 2219-32.
CFSC cells maintained in a DMEM medium supplemented with 10% fetal bovine serum were seeded to 12-well culture dishes and grown to a confluence of 60-70% the next day. Culture was changed to a serum-free DMEM medium and treated with a compound at 10 μM in the presence of TGF-β (10 ng/mL). The cells were incubated for another 24 hours. All culture was maintained at 37° C. in 5% carbon dioxide.
A NP-40 lysate solution (50 mM Tris (pH 7.4), 150 mM NaCl, 1% NP-40) with EDTA free cocktail added was used to lyse the cells on ice for 30 min. The lysate was collected and centrifuged at 4° C. for 10 min at 12,000 rpm. The pellet was discarded and the supernatant was transferred to a new tube. Cell lysates were loaded with 5×loading buffer and boiled for 10 min, resolved by 10% SDS-polyacrylamide gel electrophoresis (SDS-PAGE), and transferred to PVDF membrane. The membrane was blocked with 5% skim milk in Tris-buffered saline and TWEEN® 20 (TBST; 10 mM Tris-HCl (pH 8.0), 150 mM NaCl, 0.1% TWEEN® 20) for 1 h at room temperature and then incubated with α-SMA and […] antibodies overnight at 4° C. After washing twice with TBST, the membrane was probed with a horseradish […] anti-immunoglobulin (1:5000 dilution) for 1 h at room temperature. After two subsequent rinses in TBST, immunoreactive products were reacted with ECL and visualized by a UVP CHEMSTUDIO™ imaging system. The western blotting bands are quantitated using an ImageJ software. The percentage of inhibition was obtained by calculating the percentage decrease in the band intensity compared to the one treated with TGF-β only.
The results are summarized in Table 1, wherein A represents a value no less of 90% inhibition, B represents a value less than 90% but no less than 80% inhibition, C represents a value less than 80% but no less than 70% inhibition, D represents a value less than 70% but no less than 50% inhibition, and E represents a value less than 50% with a compound at 10 μM.

Compound | inhibition at 10 µM
CC1=C(CC(=O)N(C)O)c2cc(F)ccc2/C1=C\c1ccc(Oc2ccc(F)cc2)cc1 [Compound C2, 2-[(1Z)-5-Fluoro-1-{[4-(4-fluorophenoxy)phenyl]methylidene}-2-methyl-1H-inden-3-yl]-N-hydroxy-N-methylacetamide] | > 90%
CC1=C(CC(=O)N(C)O)c2cc(F)ccc2/C1=C\c1cccc(Oc2ccccc2)c1 [Compound C3, (Z)-2-(5-Fluoro-2-methyl-1-(3-phenoxybenzylidene)-1H-inden-3-yl)-N-hydroxy-N-methylacetamide] | 80 to 90%
CC1=C(CC(=O)NO)c2cc(F)ccc2/C1=C\c1ccc(Oc2ccc(C(C)C)cc2)cc1 [Compound D1, 2-[(1Z)-5-Fluoro-2-methyl-1-({4-[4-(propan-2-yl)phenoxy]phenyl}methylidene)-1H-inden-3-yl]-N-hydroxyacetamide] | > 90%
CC1=C(CC(=O)O)c2cc(F)ccc2/C1=C\c1ccc(Oc2ccc(C(C)(C)C)cc2)cc1 [Compound D2, 2-[(1Z)-5-Fluoro-2-methyl-1-({4-[4-(tert-butyl)phenoxy]phenyl}methylidene)-1H-inden-3-yl]acetic acid] | > 90%
CC1=C(CC(=O)O)c2cc(F)ccc2/C1=C\c1ccc(Oc2cccc(C(C)(C)C)c2)cc1 [Compound D3, 2-[(1Z)-5-Fluoro-2-methyl-1-({4-[3-(tert-butyl)phenoxy]phenyl}methylidene)-1H-inden-3-yl]acetic acid] | > 90%
CC1=C(CC(=O)O)c2cc(F)ccc2/C1=C\c1ccc(Oc2ccc(C)c(F)c2)cc1 [Compound D4, 2-[(1Z)-5-Fluoro-2-methyl-1-({4-[3-fluoro-4-methylphenoxy]phenyl}-methylidene)-1H-inden-3-yl]acetic acid] | < 50%
CC1=C(CC(=O)O)c2cc(F)ccc2/C1=C\c1ccc(Oc2ccc(F)c(F)c2)cc1 [Compound D5, 2-[(1Z)-5-Fluoro-2-methyl-1-({4-[3,4-difluorophenoxy]phenyl}methylidene)-1H-inden-3-yl]acetic acid] | > 90%
CC1=C(CC(=O)O)c2cc(F)ccc2/C1=C\c1ccc(Oc2cccc([N+](=O)[O-])c2)cc1 [Compound D6, 2-[(1Z)-5-Fluoro-2-methyl-1-({4-[3-nitrophenoxy]phenyl}methylidene)-1H-inden-3-yl]acetic acid] | < 50%
CC1=C(CC(=O)O)c2cc(F)ccc2/C1=C\c1ccc(Oc2ccc(C(F)(F)F)cc2)cc1 [Compound D7, 2-[(1Z)-5-Fluoro-2-methyl-1-({4-[4-(trifluoromethyl)phenoxy]phenyl}-methylidene)-1H-inden-3-yl]acetic acid] | > 90%
CC(C)CC1=C(CC(=O)O)c2cc(F)ccc2/C1=C\c1ccc(Oc2ccc(F)cc2)cc1 [Compound D8, 2-[(1Z)-5-Fluoro-1-{[4-(4-fluorophenoxy)phenyl]methylidene}-2-(2-methylpropyl)-1H-inden-3-yl]acetic acid] | > 90%
O=C(O)CC1=C(Cc2ccccc2)/C(=C/c2ccc(Oc3ccc(F)cc3)cc2)c2ccc(F)cc21 [Compound D9, 2-[(1Z)-5-Fluoro-2-benzyl-1-({4-[4-fluorophenoxy]phenyl}methylidene)-1H-inden-3-yl]acetic acid] | < 50%
COc1ccc2c(c1)C(CC(=O)O)=C(C)/C2=C/c1ccc(Oc2ccc(F)cc2)cc1 [Compound D10, 2-[(1Z)-5-Methoxy-2-methyl-1-({4-[4-fluorophenoxy]phenyl}methylidene)-1H-inden-3-yl]acetic acid] | > 90%
COc1ccc2c(c1)C(CC(=O)O)=C(C)/C2=C/c1ccc(Oc2ccccc2)cc1 [Compound D11, 2-[(1Z)-5-Methoxy-2-methyl-1-[(4-phenoxyphenyl)methylidene]-1H-inden-3-yl]acetic acid] | > 90%
CC1=C(CC(=O)O)c2cc(F)ccc2/C1=C\c1ccc(Oc2ccc(F)cc2)cc1C(F)(F)F [Compound D12, 2-[(1Z)-1-{[2-Trifluoromethyl-4-(4-fluorophenoxy)phenyl]methylidene}-5-fluoro-2-methyl-1H-inden-3-yl]acetic acid] | < 50%
CC1=C(CC(=O)O)c2cc(F)ccc2/C1=C\c1ccc(Oc2ccc(F)cc2)c(C)c1 [Compound D13, 2-[(1Z)-1-{[3-Methyl-4-(4-fluorophenoxy)phenyl]methylidene}-5-fluoro-2-methyl-1H-inden-3-yl]acetic acid] | < 50%
CC1=C(CC(=O)O)c2cc(F)ccc2/C1=C\c1ccc(Oc2ccc(F)cc2)cc1C [Compound D14, 2-[(1Z)-1-{[2-Methyl-4-(4-fluorophenoxy)phenyl]methylidene}-5-fluoro-2-methyl-1H-inden-3-yl]acetic acid] | > 90%
CC1=C(CC(=O)O)c2cc(F)cc(F)c2/C1=C\c1ccc(Oc2ccc(F)cc2)cc1 [Compound D15, 2-[(1Z)-5,7-Difluoro-2-methyl-1-({4-[4-fluorophenoxy]phenyl}methylidene)-1H-inden-3-yl]acetic acid] | > 90%
CC1=C(CC(=O)O)c2c(F)cc(F)cc2/C1=C\c1ccc(Oc2ccc(F)cc2)cc1 [Compound D16, 2-[(1Z)-4,6-Difluoro-2-methyl-1-({4-[4-fluorophenoxy]phenyl}methylidene)-1H-inden-3-yl]acetic acid] | < 50%
CC1=C(CC(=O)O)c2cc(F)ccc2/C1=C\c1cccc(Oc2ccccc2)c1 [Compound D18, (Z)-2-(5-Fluoro-2-methyl-1-(3-phenoxybenzylidene)-1H-inden-3-yl)acetic acid] | > 90%
CC1=C(CC(=O)O)c2cc(F)ccc2/C1=C\c1ccccc1Oc1ccccc1 [Compound D19, 2-[(1Z)-5-Fluoro-1-(2-(phenoxy)benzylidene)-2-methyl-1H-inden-3-yl]-acetic acid] | < 50%
CC1=C(CC(=O)O)c2cc(F)cc(F)c2/C1=C\c1cccc(Oc2ccccc2)c1 [Compound D20, 2-[(1Z)-5,7-Difluoro-1-(3-(phenoxy)benzylidene)-2-methyl-1H-inden-3-yl]-acetic acid] | > 90%
CC1=C(CC(=O)O)c2c(F)cc(F)cc2/C1=C\c1cccc(Oc2ccccc2)c1 [Compound D21, 2-[(1Z)-4,6-Difluoro-1-(3-(phenoxy)benzylidene)-2-methyl-1H-inden-3-yl]-acetic acid] | > 90%
COc1ccc(Oc2cccc(/C=C3/C(C)=C(CC(=O)O)c4cc(F)ccc43)c2)cc1 [Compound D22, 2-[(1Z)-5-Fluoro-2-methyl-1-({3-[4-methoxyphenoxy]phenyl}methylidene)-1H-inden-3-yl]acetic acid] | > 90%
CC1=C(CC(=O)O)c2cc(F)ccc2/C1=C\c1ccc(F)c(Oc2ccccc2)c1 [Compound D23, 2-[(1Z)-5-Fluoro-1-(4-fluoro-3-(phenoxy)benzylidene)-2-methyl-1H-inden-3-yl]-acetic acid] | > 90%
CC1=C(CC(=O)O)c2cc(F)ccc2/C1=C\c1cccc(Oc2ccc(Cl)cc2)c1 [Compound D25, 2-[(1Z)-5-Fluoro-2-methyl-1-({3-[4-chlorophenoxy]phenyl}methylidene)-1H-inden-3-yl]acetic acid] | > 90%
CC1=C(CC(=O)O)c2cc(F)ccc2/C1=C\c1cccc(Oc2ccc(C(F)(F)F)cc2)c1 [Compound D26, 2-[(1Z)-5-Fluoro-2-methyl-1-({3-[4-trifluoromethylphenoxy]phenyl}-methylidene)-1H-inden-3-yl]acetic acid] | > 90%
CC1=C(CC(=O)O)c2cc(F)ccc2/C1=C\c1cccc(Oc2cccc(C(F)(F)F)c2)c1 [Compound D27, 2-[(1Z)-5-Fluoro-2-methyl-1-({3-[3-trifluoromethylphenoxy]phenyl}-methylidene)-1H-inden-3-yl]acetic acid] | > 90%
CC1=C(CC(=O)O)c2cc(F)ccc2/C1=C/c1ccc(Oc2ccc(F)c(F)c2)cc1 [Compound E1, 2-[(1E)-5-Fluoro-2-methyl-1-({4-[3,4-difluorophenoxy]phenyl}methylidene)-1H-inden-3-yl]acetic acid] | > 90%
CC1=C(CC(=O)O)c2cc(F)ccc2/C1=C/c1ccc(Oc2ccc(F)cc2)cc1 [Compound E2, 2-[(1E)-5-Fluoro-2-methyl-1-({4-[4-fluorophenoxy]phenyl}methylidene)-1H-inden-3-yl]acetic acid] | > 90%
CC1=C(CC(=O)O)c2cc(F)ccc2/C1=C/c1ccc(Oc2ccccc2)cc1 [Compound E3, 2-[(1E)-5-Fluoro-2-methyl-1-[(4-phenoxyphenyl)methylidene]-1H-inden-3-yl]acetic acid] | > 90%
